Our source for the IC50 values is patent publication US20070032477A1, “Pteridine derivatives useful for making pharmaceutical compositions” (priority 2003, published 2007).

pIC50: −log10 of the molar value.

Assay [1] relates to production of TNF-α by PBMC in response to stimulation by LPS. Briefly: TNF-α assay. The format is cell-based, human. As to conditions: LPS 1 μg/ml, 72 hours, sandwich ELISA. As for the experimental part:
Peripheral blood mononuclear cells (herein referred as PBMC), in response to stimulation by lipopolysaccharide (hereinafter LPS), a gram-negative bacterial endotoxin, produce various […], in particular human TNF-α. Inhibition of the activation of PBMC can therefore be measured by the level of suppression of the production of TNF-α by PBMC in response to stimulation by LPS.
Such inhibition measurement was performed as follows: PBMC were isolated from heparinized peripheral blood by density gradient centrifugation over Lymphoprep (commercially available from Nycomed, Norway). LPS was then added to the PMBC suspension in complete medium (10^6 cells/ml) at a final concentration of 1 μg/ml. The pteridine derivative to be tested was added at different concentrations (0.1 μM, 1 μM and 10 μM) and the cells were incubated at 37° C. for 72 hours in 5% CO2. The supernatants were collected, then TNF-α concentrations were measured with respectively an anti-TNF-α antibody in a sandwich ELISA (Duo Set ELISA human TNFα, commercially available from R&D Systems, United Kingdom). The calorimetric reading of the ELISA was measured by a Multiskan RC plate reader (commercially available from ThermoLabsystems, Finland) at 450 nm (reference wavelength: 690 nm). Data analysis was performed with Ascent software 2.6. (also from ThermoLabsystems, Finland): a standard curve (recombinant human TNFα) was drawn and the amount (pg/ml) of each sample on the standard curve was determined.
The % suppression of human TNFα production by the pteridine derivatives of the invention (drugs) was calculated using the formula: [formula]

The test system of assay [2] is mixed lymphocyte reaction (PBMC with allogeneic PBMC or Eppstein-Barr Virus-transformed human B cells as stimulator cells). Briefly: Mixed lymphocyte reaction (MLR) assay. It is filed as cell-based. As to conditions: lowest concentration giving 50% suppression of the MLR; [3H]-thymidine. As for the experimental part:
Pteridine derivatives were first dissolved (10 mM) in dimethylsulfoxide (hereinafter referred as DMSO) and further diluted in culture medium before use for the following in vitro experiments. The commercially available culture medium consisted of RPMI-1640+10% foetal calf serum (FCS). Some pteridine derivatives described in the previous examples (as indicated in table 1) were tested in the following mixed lymphocyte reaction (MLR) assay.
Peripheral blood mononuclear cells (hereinafter referred as PBMC) were isolated from heparinized peripheral blood by density gradient centrifugation over Lymphoprep (Nycomed, Maorstua, Norway). Allogeneic PBMC or Eppstein-Barr Virus-transformed human B cells [commercially available under the trade name RPM11788 (ATCC name CCL156)] which strongly express B7-1 and B7-2 antigens were used as stimulator cells after irradiation with 30 Gy. MLR was performed in triplicate wells. After 5 days incubation at 37° C., 1 μCi [^3H]-thymidine was added to each cup. After a further 16 hours incubation, cells were harvested and counted in a […]. Inhibition of proliferation by a compound (drug) described in some of the previous examples was counted using the formula: [formula] wherein cpm is the thymidine count per minute. The MLR assay is regarded by those skilled in the art as an in vitro analogue of the transplant rejection since it is based on the recognition of allogeneic major histocompatibility antigens on the stimulator leukocytes, by responding lymphocytes.

Consider `CCC(=O)N1CCN(c2nc(N)nc3ncc(-c4ccc(OC)c(OC)c4)nc23)CC1` [Example 9, 2-amino-4-[(N-propionyl)-piperazin-1-yl]-6-(3,4-dimethoxyphenyl)pteridine], for which the results for the pIC50 in assay [1] and in assay [2] were 6.85 and 6.30, respectively.

As to `COc1ccc(-c2cnc3nc(N)nc(N4CCN(CCN(C(C)C)C(C)C)CC4)c3n2)cc1OC` [Example 128, 2-amino-4-(1-(2-diisopropylaminoethyl)-piperazino)-6-(3,4-dimethoxyphenyl)pteridine], the pIC50 in assay [1] was 5.48; in assay [2], 5.13.

For the compound `COc1ccc(-c2cnc3nc(N)nc(N4CCN(c5ccc([N+](=O)[O-])cc5C(F)(F)F)CC4)c3n2)cc1OC` [Example 186, 2-amino-4-[2-trifluoromethyl-4-nitro-phenyl-piperazin-1-yl)-6-(3,4-dimethoxyphenyl)pteridine], the pIC50 in assay [1] was 6.40; in assay [2] it was 5.30.

As to `COc1ccc(-c2cnc3nc(N)nc(N4CCN(C(=O)Nc5ccc(F)c(Cl)c5)CC4)c3n2)cc1OC` [Example 106, 2-amino-4-(N-3-chloro-4-fluorophenylcarbamoyl-piperazin-1-yl)-6-(3,4-dimethoxyphenyl)pteridine], the pIC50 is 5.85 in assay [1] and 7.24 in assay [2].

In the case of `COc1ccc(-c2cnc3nc(N)nc(N4CCN(C(=O)Nc5ccc(C#N)cc5)CC4)c3n2)cc1OC` [Example 102, 2-amino-4-(N-4-cyanophenylcarbamoyl-piperazin-1-yl)-6-(3,4-dimethoxyphenyl)pteridine], the pIC50 in assay [1] was 6.20; in assay [2], 7.13.

On to `COc1ccc(-c2cnc3nc(N)nc(N4CCN(c5ccc(C(F)(F)F)cc5[N+](=O)[O-])CC4)c3n2)cc1OC` [Example 185, 2-amino-4-[4-trifluoromethyl-2-nitro-phenyl-piperazin-1-yl)-6-(3,4-dimethoxyphenyl)pteridine], for which the results for the pIC50 in assay [1] and in assay [2] were 6.30 and 5.72, respectively.

Regarding `COc1ccc(-c2cnc3nc(N)nc(N4CCCN(C(=O)COc5ccccc5)CC4)c3n2)cc1OC` [Example 89], the figures for the pIC50 in assay [1] and in assay [2] were 5.92 and 7.06, respectively.

Turning to `COc1ccc(-c2cnc3nc(N)nc(N4CCN(C(=O)NCc5ccc(F)cc5)CC4)c3n2)cc1OC` [Example 105, 2-amino-4-(N-4-fluorobenzylcarbamoyl-piperazin-1-yl)-6-(3,4-dimethoxyphenyl)pteridine], the values for the pIC50 in assay [1] and in assay [2] were 6.15 and 7.43, respectively.

On to `COc1ccc(-c2cnc3nc(N)nc(N4CCN(C(=O)Nc5cccc(C)c5)CC4)c3n2)cc1OC` [Example 103, 2-amino-4-(N-3-methylphenylcarbamoyl-piperazin-1-yl)-6-(3,4-dimethoxyphenyl)pteridine], for which the pIC50 in assay [1] is 7.00; in assay [2], 8.19.

Regarding `COCCOC(=O)N1CCN(c2nc(N)nc3ncc(-c4ccc(OC)c(OC)c4)nc23)CC1` [Example 97], the negative logarithm of the IC50 (pIC50) is 6.52 in assay [1] and 6.62 in assay [2].

Consider `COc1ccc(-c2cnc3nc(N)nc(N4CCN(C(=O)c5ccc(C#N)cc5)CC4)c3n2)cc1OC` [Example 16, 2-amino-4-[N-(4-cyanobenzoyl)-piperazin-1-yl]-6-(3,4-dimethoxyphenyl)pteridine], for which the pIC50 was 6.26 in assay [1] and 6.10 in assay [2].

Regarding `COc1ccc(-c2cnc3nc(N)nc(N4CCN(C(=O)COc5ccc(Cl)cc5)CC4)c3n2)cc1OC` [Example 29], the pIC50 is 7.11 in assay [1] and 9.30 in assay [2].

`COc1ccc(-c2cnc3nc(N)nc(N4CCN(c5ccncc5)CC4)c3n2)cc1OC` [Example 145, 2-amino-4-((4-pyridyl)-piperazin-1-yl)-6-(3,4-dimethoxyphenyl)pteridine]: the values for the pIC50 in assay [1] and in assay [2] were 5.36 and 5.46, respectively.

Turning to `COc1ccc(-c2cnc3nc(N)nc(N4CCN(C(=O)c5ccc(Cl)c(Cl)c5)CC4)c3n2)cc1OC` [Example 44, 2-amino-4-[N-(3,4-dichlorobenzoyl)-piperazin-1-yl]-6-(3,4-dimethoxy-phenyl)pteridine], the figures for the pIC50 in assay [1] and in assay [2] were 6.15 and 6.70, respectively.

As for `COc1ccc(-c2cnc3nc(N)nc(N4CCN(Cc5ccccn5)CC4)c3n2)cc1OC` [Example 177, 2-amino-6-(3,4-dimethoxyphenyl)-4-((2-pyridyl)methyl-piperazin-1-yl)pteridine], the pIC50 is 7.05 in assay [1] and 6.10 in assay [2].

Take `COc1ccc(-c2cnc3nc(N)nc(N4CCN(C(=O)Nc5ccccc5)CC4)c3n2)cc1OC` [Example 99, 2-amino-4-(N-phenyl-carbamoyl-piperazin-1-yl)-6-(3,4-dimethoxyphenyl)pteridine]: the pIC50 is 7.05 in assay [1] and 8.47 in assay [2].

Consider `COc1ccc(-c2cnc3nc(N)nc(N4CCN(Cc5ccccc5F)CC4)c3n2)cc1OC` [Example 141, 2-amino-4-((2-fluorobenzyl)piperazin-1-yl)-6-(3,4-dimethoxyphenyl)pteridine], for which the figures for the pIC50 in assay [1] and in assay [2] were 6.70 and 6.15, respectively.

With `COc1ccc(-c2cnc3nc(N)nc(N4CCN(c5ccccc5OC)CC4)c3n2)cc1OC` [Example 160, 2-amino-4-((2-methoxyphenyl)-piperazin-1-yl)-6-(3,4-dimethoxyphenyl)pteridine], the pIC50 in assay [1] is 6.38; in assay [2], 5.42.

For the compound `COc1ccc(-c2cnc3nc(N)nc(N4CCN(C(=O)N(C)c5ccc(C)cc5)CC4)c3n2)cc1OC` [Example 119, 2-amino-4-(N-methyl-N-tolyl-carbamoyl-piperazin-1-yl)-6-(3,4-dimethoxyphenyl)pteridine], the pIC50 in assay [1] is 6.59; in assay [2], 6.52.

As to `COc1ccc(-c2cnc3nc(N)nc(N4CCN(C/C=C/c5ccccc5)CC4)c3n2)cc1OC` [Example 66, 2-amino-4-(N-trans-cinnamylpiperazin-1-yl)-6-(3,4-dimethoxy-phenyl)pteridine], the pIC50 in assay [1] is 6.52; in assay [2], 6.10.

`COc1ccc(-c2cnc3nc(N)nc(N4CCN(CC5CCCN(C)C5)CC4)c3n2)cc1OC` (centres unmarked) [Example 179, 2-amino-6-(3,4-dimethoxyphenyl)-4-(1-(1-methyl-piperidin-3-yl-methyl)-piperazin-1-yl)pteridine]: the negative-log IC50 (pIC50) in assay [1] is 5.74; in assay [2], 5.10.

Turning to `COc1ccc(-c2cnc3nc(N)nc(N4CCN(C(=O)N(c5ccccc5)c5ccccc5)CC4)c3n2)cc1OC` [Example 39, 2-amino-4-[(N-diphenylcarbamoyl)-piperazin-1-yl]-6-(3,4-dimethoxy-phenyl)pteridine], the pIC50 is 6.10 in assay [1] and 6.15 in assay [2].

Regarding “2-amino-4-(1-(2-diethylaminoethyl)-piperazino)-6-(3,4-dimethoxyphenyl)pteridine [Example 127]”, the negative-log IC50 (pIC50) is 5.59 in assay [1] and 5.04 in assay [2].

As for `COc1ccc(-c2cnc3nc(N)nc(N4CCN(C(=O)c5ccc(F)cc5)CC4)c3n2)cc1OC` [Example 32, 2-amino-4-[(N-p-fluorobenzoyl)-piperazin-1-yl]-6-(3,4-dimethoxyphenyl)pteridine], the pIC50 in assay [1] and in assay [2] was 6.40 throughout.

Take `COc1ccc(-c2cnc3nc(N)nc(N4CCN(Cc5ccc(C(C)(C)C)cc5)CC4)c3n2)cc1OC` [Example 144, 2-amino-4-((4-tert-butylbenzyl)piperazin-1-yl)-6-(3,4-dimethoxyphenyl)pteridine]: the results for the pIC50 in assay [1] and in assay [2] were 6.15 and 5.37, respectively.
